Source: US9327059B2, “Steroid-containing sustained release intraocular implants and related methods” (Allergan, Inc., priority 2004, dated 2016)
Read-outs that look alike come from different tables or passages of the source. Blank lines part the entries; values can stand above or below the compound they belong to.

Legend:
[1] = in vivo; cited from earlier work
[2] = Relative water solubility of the steroids; type: physicochemical
[3] = In vivo fluocinolone acetonide levels in rabbit eyes after intravitreal implant
Procedure: The in vivo study was conducted on four rabbits. The fluocinolone-containing implants were surgically implanted into the posterior segment (i.e., the vitreous) of the right eye (OD) and left eye (OS) of each rabbit. The aqueous humor (15-20 μL) and the vitreous humor (150-200 μL) were withdrawn for the first two rabbits, while the sampling for the remaining two rabbits was determined by a sampling schedule wherein the sampling days were days 7, 14, 21, 40, and 60, 90, and 120.

SMILES: CC(C)OC(=O)CCC/C=C\C[C@@H]1[C@@H](CC[C@@H](O)CCc2ccccc2)[C@H](O)C[C@@H]1O [latanoprost]
human eyes with increase in brown pigment in the iris [1]: 5-15%

SMILES: CC1(C)O[C@@H]2C[C@H]3[C@@H]4CCC5=CC(=O)C=C[C@]5(C)[C@@]4(F)[C@@H](O)C[C@]3(C)[C@]2(C(=O)CO)O1 [triamcinalone acetonide]
water solubility, times more soluble than beclomethasone dipropionate [2]: about 150 times

fluocinolone acetonide level in anterior chamber / aqueous humor ([3]; implant configuration #29, any time point): not detected
Fluocinolone (ng/mL) in vitreous humor, single eye ([3]; intravitreal implant configuration #29, day 40): 40.80 ng/mL
concentration at 7 day ([3]; vitreous humor, intravitreal implant configuration #29, day 7): 95.9 ng/mL
concentration at 14 day ([3]; vitreous humor, intravitreal implant configuration #29, day 14): 50.9 ng/mL
concentration at 21 day ([3]; vitreous humor, intravitreal implant configuration #29, day 21): 45.7 ng/mL
concentration at 40 day ([3]; vitreous humor, intravitreal implant configuration #29, day 40, read-out: Fluocinolone (ng/mL) in vitreous humor, Average): 42.4 ng/mL
concentration at 40 day ([3]; vitreous humor, intravitreal implant configuration #29, day 40, read-out: Fluocinolone (ng/mL) in vitreous humor, single eye): 44 ng/mL
concentration at 60 day ([3]; vitreous humor, intravitreal implant configuration #29, day 60): 50.6 ng/mL
concentration at 90 day ([3]; vitreous humor, intravitreal implant configuration #29, day 90): 36.1 ng/mL
concentration at 120 day ([3]; vitreous humor, intravitreal implant configuration #29, day 120): 28.1 ng/mL
SMILES: CC1(C)O[C@@H]2C[C@H]3[C@@H]4C[C@H](F)C5=CC(=O)C=C[C@]5(C)[C@@]4(F)[C@@H](O)C[C@]3(C)[C@]2(C(=O)CO)O1 [Fluocinolone acetonide, 1,4-pregnadien-6α, 9α-difluoro-11β, 16α,17,21-tetrol-3,20-dione 16,17-acetonide]
